Laboratory results from patent US20070003480A1, “Liposomal composition comprising haptotactic peptides” (Hapto Biotech, Inc., priority 2002, published 2007).
“Also recorded” adds a separate entry of the source.

Experiments:
[1] = tested on: Human fibroblasts; assay: Haptide-mediated liposome uptake by human fibroblasts, fluorescence microscopy; format: cell-based; details: for liposome uptake into the cytoplasm of fibroblasts: rhodamine-loaded liposomes, FIG. 4
Experimental: (§1) Human fibroblasts or bovine aortic endothelial cells were seeded and grown in CO2 incubator for 24 hours in a 4-chamber cell culture coverslip slide (source) used for microscopy. Then, they were exposed to either free ^FITCHaptide or to a ^FITCHaptotactic Peptide-Liposomal composition. Two liposome types were examined, namely liposomes composed of hydrogenated phosphatidyl serine, PEG and cholesterol, containing the fluorescent dye Rhodamine; and clinical grade liposomes containing the anti-cancer drug doxorubicin (Doxil liposomes). Both rhodamine and doxorubicin are fluorescent compounds. Thus, the liposome penetration and distribution within cells could be tracked by fluorescence microscopy or FACS. Typically, 20 μl of fluorescent Haptotactic Peptide-Liposomal composition were mixed with 180 μl PBS and added to the cell chamber. Incubation was continued for up to 1 hour at 37 or 4° C. The incubation was stopped at different time points by two subsequent washes with PBS, followed by fixation with 500 μl of 4% formaldehyde for 1 hr. The samples were then washed again with PBS. Coverslips with the fixed cells were covered by PBS-glycerol 80%, DABCO 2%, and an additional coverslip for microscopic examination.

[2] = tested on: bovine aortic endothelial cells; assay: Haptide-mediated Doxil liposome uptake by bovine aortic endothelial cells, fluorescence microscopy; format: cell-based; details: Doxil (doxorubicin-loaded) liposomes; FIG. 5
Experimental: as §1

[3] = tested on: HF; assay: Cell adhesion (haptotaxis) assay, Sepharose bead-bound ligand; format: cell-based, human; details: ligand bound to Sepharose beads
Experimental: (§2) The attachment of Sepharose beads (SB)-ligand to cells in nearly confluent cultures grown on plastic was measured as previously described (Gorodetsky R. et al. 1998. J Lab Clin Med 131, 269-280; Gorodetsky R. et al. 1999. J Invest Dermatol 112:866-872). Essentially, about 20-150 μl of suspended (50% v/v) SB-Haptide or SB-fibrinogen were added to near confluent cell cultures in 6-24 well plates and dispersed by gentle shaking for 1 min. The plates were then incubated for up to 4 days. After one day the number of SB tethered to cell layer was counted with an inverted phase or Numarsky microscopy. Typically, ˜300 SB (but not less then 200) were counted in each well, and the ratio of the number of SB attached to the cells in each well, was calculated relative to the total number of SB. At least 3 wells were measured for each variant and each experiment was repeated at least 3 times.

[4] = tested on: BAEC; assay: as above; format: cell-based, bovine; details: ligand bound to Sepharose beads
Experimental: as §2

[5] = tested on: human fibroblasts (HF); assay: Uptake of FITC-labelled peptides by cells, confocal laser fluorescence microscopy; format: cell-based; details: visual score (0-4) from fluorescence micrographs; FITC-labelled ligand 100 μg/ml (40 μM), 1 h, 37° C.
Experimental: Fluorescent microscopy was carried out with Olympus or Nikon fluorescence microscopes. Confocal laser microscopy was done with a computerized Zeiss Confocal Axiomate microscope (LSM410) with multiple excitation wavelengths. Peptides were tagged with fluorescein isothiocyanate (FITC) for visualization. For examination of ^FITCpeptides uptake by human fibroblasts (HF) the cells were grown on glass coverslips to near confluence and then incubated with 100 μg/ml (40 μM) ^FITCpeptides at 37° C. After 1 h, the cells were washed and fixed in 0.5% buffered glutaraldehyde. Coverslips with the cells were placed on a microscope slide with PBS-glycerol 80% with 2% DABCO and examined. The representative fields of cells were visualized by Numarski optics and confocal scans of cell fluorescence intensity in 1 μm slices were recorded at the FITC wavelength (excitation 488 nm, emission 515 nm) and later reconstructed. Uptake of ^FITCligand by HF was scored visually (0-4). The fluorescent haptotactic peptides were clearly seen taken up by the HF cells, and the nuclei remained relatively free of ^FITCHaptide (FIGS. 1A & B). […] By contrast, the uptake of the control ^FITCCα peptide by the cells was negligible.

[6] = Particle size by dynamic light scattering; format: physicochemical; details: Haptide solution 1 mg/mL, 0.45 μm filtered, 25° C., mean of three measurements
Experimental: It has been previously observed by gel filtration that haptides tend to form aggregates (Gorodetsky R, Vexler A, Shamir M, An J, Levdansky L, Shimeliovich I, Marx G. Exp Cell Res. 287:116-129 (2003). A solution of the Haptide preCγ (1 mg/mL) was passed through a 0.45 μm filter and then measured by dynamic light scattering at 25° C. The average particle size (a mean value of three measurements) was ˜145 nm (FIG. 3), showing that such particle is an aggregate of few hundreds of preCγ monomers.
Similarly, Doxil liposomes were measured and observed to have a mean diameter of 80 nm. However, when the preCγ-liposomal composition was formed, the preCγ Haptides aggregates disappeared in correlation with the liposome/Haptide weight ratio (FIG. 3). […] At a doxil/haptide weight ratio of >10^−2, the almost totally all the Haptides aggregates were solubilized within the liposomes as indicated by the disappearance of larger Haptide particles, forming the haptotactic-peptide liposomal composition.

Substance	liposome uptake into the cytoplasm of fibroblasts [1]	liposome uptake into endothelial cells [2]	% Haptotaxis (HF, 1 day) [3] [%]	% Haptotaxis (BAEC, 1 day) [4] [%]	Cell Uptake (HF) [5]	average particle size [6] [nm]	concentration-dependent liposome uptake by human fibroblasts ([1]; Doxorubicin-loaded liposomes, varying Haptide concentration, FIG. 6)
RGADYSLRAVRMKIRPLTVTQ (Equivalent to the c-terminus of fibrinogen alphaE chain) [CαE]	Low induction	efficient in enhancing doxorubicin-liposome (Doxil) uptake	60	75	+3	–	–
KTRWYSMKKTTMKIIPFNRL (Equivalent to the c-terminus of fibrinogen pre-gama chain) [preCγ]	facilitated liposome uptake	facilitated liposome uptake	–	–	–	~145	–
KGSWYSMRKMSMKIRPFFPQQ (Equivalent to the c-terminus of fibrinogen beta-chain) [Cβ]	facilitated liposome uptake	facilitated liposome uptake	100	100	+4	–	increased liposome uptake; also recorded: directly correlated to the Haptide (Cβ) concentration
fibrinogen	–	–	100	100	+2	–	–
